Tested on: Akt
Experiment: Immunohistochemistry assay for phosphorylated Akt in H9c2 cells
Type: cell-based, rat
Details: 50 μM, 3 hours, vs vehicle
Description: The ability of RLip-EA-OH to increase phosphorylated Akt was assayed in H9c2 cells by immunocytochemistry followed by visualization using microscopy. H9c2 cells are a cell line derived from rat cardiac myocytes and can be manipulated to increase or decrease the level of phosphoryated Akt. Cells were inoculated onto culture plates and allowed to adhere to the bottom, treated, fixed, and permeabilized. Following permeabilization, cells were treated initially with specific phospho-Akt antibodies followed by fluorescent secondary antibodies to quantify the amount of bound primary antibody.
H9c2 cells were plated in 12 well cell culture treated plates at 70% confluence. Cells were incubated overnight to allow cell attachment. The media was changed to low serum (0.5%, fetal bovine serum [FBS]) and cells incubated for another 48 hours. Cells were treated for 3 hours with either vehicle, RLip-EA-OH (50 μM), or co-treatment with LY294002 (25 μM), fixed with 3.7% formaldehyde in phosphate buffered saline and permeabilized with 0.5% Triton X-100 in phosphate buffered saline. After permeabilization, the cells were treated with antibody specific for Akt phosphorylated at threonine-308, followed by treatment with a fluorescent labeled secondary antibody.

C[C@H](NC(=O)[C@H](CCC(=O)O)NC(=O)CCCC[C@@H]1CCSS1)C(=O)O [RLip-EA-OH, N-(R)-lipoyl-L-glutamyl-L- alanine]
fluorescence intensity (Akt phosphorylated at threonine-308): much brighter

From patent US8772250B2, “Compositions and methods for treating ischemia and ischemia-reperfusion injury” (Ischemix, LLC, priority 2010, dated 2014)
